Measurements taken from patent publication US10335400B2, “Treatment of tauopathies with mGluR5 antagonists” (priority 2014, dated 2019).
“Also recorded” adds a separate entry of the source.

What was measured:
[1] = test system: ERK1/2; test: ERK1/2 phosphorylation in primary neurons treated with okadaic acid; assay type: cell-based, mouse; details: okadaic acid 10-100 nM, 30 min
Experimental: FIGS. 11A and 11B are images showing the inhibition of PP2A induces ERK1/2 phosphorylation. Primary neurons were treated with the PP2A inhibitor okadaic acid (OA, 10-100 nM) for 30 min and were processed for ERK1/2 analysis. (A) Representative Western blots showing phosphorylation of ERK1/2. (B) Quantitative analysis of pERK1/2 after normalization with total ERK1/2. Data are expressed as mean±SEM. *P<0.05; **P<0.01.
Protein was fractionated by 10% SDS/PAGE, transferred to PVDF membrane, and then blocked with 5% skim milk for 1 h at room temperature. […] The protein bands were detected with the enhanced chemiluminescence reagents (Thermo Scientific). Band intensity was measured by Multi-Gauge V3 software (Fuji Photo Film).

[2] = test system: tau; test: Tau phosphorylation (Western blots) in metabolically active rat brain slices; assay type: cell-based; details: rat brain slices; for BMAA-induced tau hyperphosphorylation at the 12E8 site: 30 min preincubation
Experimental: (§1) Male Wistar rats (Charles River Laboratories), 2-3 months old, were anesthetized by i.p. injection with 50 mg/kg Nembutal. The animals were decapitated when deeply anesthetized. The brains were removed immediately and cooled in ice-cold (4° C.) oxygenated artificial cerebrospinal fluid (aCSF) consisting of 126 mM NaCl, 3.5 mM KCl, 1.2 mM NaH2PO4, 1.3 mM MgCl2, 2 mM CaCl2, 11 mM D(+) glucose, and 25 mM NaHCO3 (pH 7.4) for 7-8 min. Each brain then was divided sagittally, and 400-μm-thick coronal slices were made with a Camden Vibraslicer (WP, Inc.). The slices were transferred into a chamber containing the oxygenated aCSF and were incubated at 33° C. for 2 h in the presence or absence of 1 mM, β-N ? methylamino-L-alanine (BMAA) dissolved in 10 mM NaHCO3 (Sigma). The oxygenation of the aCSF was carried out by bubbling the solution with a mixture of 95% O2 and 5% CO2 during the entire procedure. At the end of incubation, the brain slices were homogenized with homogenizing buffer [50 mM Tris·HCl (pH 7.4), 8.5% (wt/vol) sucrose, 2 mM EDTA, 2 mM EGTA, 10 mM (3-mercaptoethanol, 5 mM benzamidine, 0.5 mM 4-(2-Aminoethyl) benzenesulfonyl fluoride hydrochloride (AEBSF), 4 μg/mL pepstatin A, and 10 μg/mL each of aprotinin and leupepin] at a ratio of 9.0 mL buffer/1.0 g tissue slices. The homogenates were divided into two parts. One part was centrifuged at 16,000×g for 10 min, and the resulting supernatant was used to assay protein phosphatase 2A (PP2A) activity. Into the other half, an equal volume of phosphatase-inhibitor mixture (20 mM 3-glycerophosphate, 2 mM Na3VO4, and 100 mM NaF) was added immediately, and the samples were used for Western blots.
Protein was fractionated by 10% SDS/PAGE, transferred to PVDF membrane, and then blocked with 5% skim milk for 1 h at room temperature. The membrane was probed with anti-IPP2A (5G6, 1:1, 500) (7), anti-I2P2A (10E7, 1:1, 600) (7), anti-tau ˜92e; 1:5,000) (8), anti-tau (R134d; 1:5 000) (9), anti-tau pSer^262/^356 (12E8; 1:500) (10, anti-tau pSer^199, anti-tau pThr^205, anti-tau pThr^212, and pSer^396 (1:1,000) (Biosource), anti-GAPDH (1:2,000) (Santa Cruz Biotechnology), anti-PP2Ac (1:10 000) (BD Transduction Lab), anti pY^307-PP2A and anti-DML^309-PP2A (1:1,000) (Millipore), anti-GSK-3(α/β), anti-pS^9-GSK-3 β, anti-ERK1/2, anti-pT^202/Y^204-ERK1/2, anti-MEK1/2, anti-p9^17/221-MEK1/2, anti-CAMKII, anti-pT^286-CAMKII, anti-p70 S6 kinase, anti-pT^389-p70 S6 kinase, anti-SAPK/JNK, and anti-pT^183/Y^185-SAPK/JNK (1:1,000) (Cell Signaling Technology). The membrane then was incubated with HRP-conjugated secondary antibody (Jackson ImmunoResearch). The protein bands were detected with the enhanced chemiluminescence reagents (Thermo Scientific). Band intensity was measured by Multi-Gauge V3 software (Fuji Photo Film).

[3] = test system: PP2A; test: PP2A activity (phosphatase ELISA) in rat brain slices; assay type: cell-based; details: 30 min pretreatment, BMAA 1 mM 2 h, rat brain slices
Experimental: as §1

[4] = target: T1, mGluR5-PP2A complex (Mus musculus, UniProt Q3UVX5); test: Coimmunoprecipitation of PP2Ac with mGluR5 in primary neurons; assay type: cell-based
T1 construct: endogenous in cells; host or cells: mouse primary hippocampal neuronal cultures
T1 sequence (Q3UVX5 19-1203, one chain of several): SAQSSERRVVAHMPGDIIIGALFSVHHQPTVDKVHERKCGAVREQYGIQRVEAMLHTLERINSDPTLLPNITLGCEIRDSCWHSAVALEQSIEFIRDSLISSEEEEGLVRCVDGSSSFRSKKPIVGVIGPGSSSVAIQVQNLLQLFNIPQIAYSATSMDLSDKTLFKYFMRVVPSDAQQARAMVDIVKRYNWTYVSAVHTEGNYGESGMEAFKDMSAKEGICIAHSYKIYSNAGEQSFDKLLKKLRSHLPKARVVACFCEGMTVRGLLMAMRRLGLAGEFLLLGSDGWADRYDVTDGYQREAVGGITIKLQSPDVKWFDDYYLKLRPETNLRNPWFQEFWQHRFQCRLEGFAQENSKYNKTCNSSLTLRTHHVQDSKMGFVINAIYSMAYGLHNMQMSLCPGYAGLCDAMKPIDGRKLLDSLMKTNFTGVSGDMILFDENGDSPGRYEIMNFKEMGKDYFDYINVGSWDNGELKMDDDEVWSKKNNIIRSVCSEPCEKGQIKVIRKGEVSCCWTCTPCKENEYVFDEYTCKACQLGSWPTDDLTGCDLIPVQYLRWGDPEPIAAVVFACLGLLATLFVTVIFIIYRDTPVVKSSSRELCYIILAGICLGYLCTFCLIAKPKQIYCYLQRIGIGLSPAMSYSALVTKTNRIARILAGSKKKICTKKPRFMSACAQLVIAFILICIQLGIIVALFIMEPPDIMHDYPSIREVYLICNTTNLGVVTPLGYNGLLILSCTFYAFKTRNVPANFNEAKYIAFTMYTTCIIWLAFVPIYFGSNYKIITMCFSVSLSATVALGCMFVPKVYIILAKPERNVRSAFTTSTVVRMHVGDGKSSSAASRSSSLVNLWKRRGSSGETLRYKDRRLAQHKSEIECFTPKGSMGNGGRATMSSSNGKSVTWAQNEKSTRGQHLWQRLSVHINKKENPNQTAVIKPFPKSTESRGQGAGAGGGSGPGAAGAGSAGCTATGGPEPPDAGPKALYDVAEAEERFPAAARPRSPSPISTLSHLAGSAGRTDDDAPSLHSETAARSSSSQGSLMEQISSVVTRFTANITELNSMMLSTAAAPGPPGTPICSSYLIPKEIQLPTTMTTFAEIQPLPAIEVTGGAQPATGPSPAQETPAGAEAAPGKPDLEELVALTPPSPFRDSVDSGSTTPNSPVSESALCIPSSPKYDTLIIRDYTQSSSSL
Experimental: Mouse hippocampal cell proteins were prepared with low-stringency lysis buffer [50 mM Hepes (pH 7.4), 10% (vol/vol) glycerol, 1.5 mM MgCl2, 5 mM NaF, 1 mM Na3VO4, 1 mM EDTA, 1 mM EGTA, 1% Nonidet P-40, 5 mM AEBSF, 10 μg/mL aprotinin, leupeptin, pepstatin] and were homogenized by several freeze-thaw cycles followed by water bath sonication. The homogenate was centrifuged at 14,000×g at 4° C. for 15 min. For transfection experiments with vector (DsRed) and with DsRed-PP2A catalytic subunit (PP2Ac), primary neurons were processed in a similar manner. The supernatants then were used for immunoprecipitation with mouse anti-PP2A (1D6; Millipore) followed by incubation with protein G-Sepharose (Thermo Scientific). The Western blots of immunoprecipitates were probed with rabbit anti-mGluR5 (Millipore) and rabbit anti-PP2Ac [R123d] (FIG. 55).

C=C1[C@@H](O)[C@@H]2O[C@]3(CC[C@H](/C=C/[C@@H](C)[C@@H]4CC(C)=C[C@@]5(O[C@H](C[C@@](C)(O)C(=O)O)CC[C@H]5O)O4)O3)CC[C@H]2O[C@@H]1[C@@H](O)C[C@H](C)[C@H]1O[C@@]2(CCCCO2)CC[C@H]1C [okadaic acid]
ERK1/2 phosphorylation [1]: up-regulates

CCCCCCCCCCCCC/C=C/[C@@H](O)[C@@H](N)CO [DES, D-Erythro-S]
BMAA-induced tau hyperphosphorylation ([2]; DES 15 nM pretreatment, BMAA 1 mM 2 h): blocked; also recorded: entirely prevented

CC(C)(C)n1nc(-c2ccc(Cl)cc2)c2c(N)ncnc21 [PP2]
BMAA-induced tau hyperphosphorylation ([2]; PP2 10 μM, 30 min before BMAA): blocked; also recorded: significantly attenuated

N#Cc1cc2c(cc1[N+](=O)[O-])=NC(=O)C(=O)N=2 [CNQX, 6-cyano-7-nitroquinoxaline-2,3-dione]
BMAA induced decrease in PP2A activity blocked by pretreatment ([3]; CNQX 20 μM): not
BMAA-induced tau hyperphosphorylation at the 12E8 site ([2]; CNQX 20 μM alone, BMAA 1 mM 2 h): no significant change

Cc1cccc(C#Cc2ccccc2)n1 [MPEP, 2-methyl-6-(phenylethynyl)pyridine]
BMAA-induced dissociation of PP2A from mGluR5 [4]: completely blocked
BMAA induced decrease in PP2A activity blocked by pretreatment ([3]; MPEP 50 μM): blocked completely
BMAA-induced tau hyperphosphorylation at the 12E8 site ([2]; 50 μM MPEP, BMAA 1 mM 2 h): significantly blocked
